Columns and labels:
Type in all cases: binding
wildtype KRAS = biological target: T1, wildtype KRAS (Homo sapiens, UniProt P01116); assay: HTRF assay, interaction of wildtype KRAS with SOS1; settings: Ras::SOS1 interaction, read-out: Inhibition of KRAS WT (IC50)
T1 construct: made in house; host or cells: E. coli, e.g. BL21 (DE3)
Description: (§1) This assay can be also used to assess a selective inhibition or reduction of signaling output of a mutant Ras protein relative to a wildtype, or relative to a different mutant Ras protein. For example, the equilibrium interaction of wildtype Kras or K-Ras mutant (e.g., wildtype or a mutant thereof) with SOS1 (e.g., hSOS1) can be assessed as a proxy or an indication for a subject compound's ability to bind and inhibit Ras protein. The HTRF assay detects from (i) a fluorescence resonance energy transfer (FRET) donor (e.g., antiGST-Europium) that is bound to GST-tagged K-Ras mutant to (ii) a FRET acceptor (e.g., anti-6His-XL665) bound to a His-tagged hSOS1.
(§2) The assay buffer can contain ˜5 mM HEPES pH 7.4, ˜150 mM NaCl, ˜ 1 mM DTT, 0.05% BSA and 0.0025% (v/v) Igepal. A Ras working solution is prepared in an assay buffer containing typically a suitable amount of the protein construct (e.g., GST-tagged K-Ras mutant) and the FRET donor (e.g., antiGST-Eu(K) from Cisbio, France). A SOS1 working solution is prepared in an assay buffer containing suitable amount of the protein construct (e.g., His-hSOS1) and the FRET acceptor (e.g., anti-6His-XL665 from Cisbio, France). A suitable amount of the protein construct will depend on the range of activity or range of IC50 values being detected or under investigation. For detecting an IC50 within a range of 500 nM, the protein constructs of the same range of molarity can be utilized.
(§3) A fixed volume of DMSO with or without test compound is transferred into a 384-well plate. Ras working solution is added to all wells of the test plate. SOS1 working solution is added to all wells except for those that are subsequently filled with inhibitor control solution. Upon incubation for about 10 minutes or longer, the fluorescence is measured with a M1000Pro plate reader (Tecan) using HTRF detection (excitation 337 nm, emission 1: 620 nm, emission 2: 665 nm). Compounds are tested in duplicate at different concentrations (for example, 10 μM, 2.5 μM, 0.63 μM, 0.16 μM, 0.04 μM, 0.01 μM test compound). The ratiometric data (i.e., emission 2 divided by emission 1) is used to calculate IC50 values against Ras using GraphPad Prism (GraphPad software). Signaling output measured in terms of IC50 values can be obtained and a ratio of IC50 against one mutant relative to another mutant can be calculated. For instance, a selective reduction of K-Ras G12D signaling output can be evidenced by a ratio greater than one. In particular, a selective reduction of K-Ras G12D signaling relative to K-Ras WT signaling is evidenced if the ratio of IC50 (against K-Ras WT) to IC50 (against K-Ras G12D) is greater than 1.

KRAS G12V = biological target: T2, KRAS G12V (Homo sapiens, UniProt P01116, G12V); assay: HTRF assay, interaction of KRAS G12V with SOS1; settings: Ras::SOS1 interaction, read-out: Inhibition of KRAS G12V (IC50)
T2 construct: made in house; host or cells: E. coli, e.g. BL21 (DE3)
Description: as §1, §2, §3

KRAS G12D = biological target: T3, KRAS G12D (Homo sapiens, UniProt P01116, G12D); assay: HTRF assay, interaction of KRAS G12D with SOS1; settings: Ras::SOS1 interaction, read-out: Inhibition of KRAS G12D (IC50)
T3 construct: made in house; host or cells: E. coli, e.g. BL21 (DE3)
Description: as §1, §2, §3

T3 sequence (P01116 1-188 isoform P01116-2 G12D): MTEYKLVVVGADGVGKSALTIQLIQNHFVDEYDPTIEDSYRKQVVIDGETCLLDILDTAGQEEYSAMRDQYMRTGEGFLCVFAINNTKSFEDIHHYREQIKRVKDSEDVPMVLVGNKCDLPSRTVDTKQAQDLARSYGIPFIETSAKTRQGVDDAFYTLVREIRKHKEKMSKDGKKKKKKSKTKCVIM
T2 sequence (P01116 1-188 isoform P01116-2 G12V): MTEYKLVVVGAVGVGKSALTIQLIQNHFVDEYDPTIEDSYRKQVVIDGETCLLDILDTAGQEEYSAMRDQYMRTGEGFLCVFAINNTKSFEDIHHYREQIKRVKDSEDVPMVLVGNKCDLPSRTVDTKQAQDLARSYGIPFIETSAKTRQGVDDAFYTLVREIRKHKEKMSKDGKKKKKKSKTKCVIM
T1 sequence (P01116 1-188 isoform P01116-2): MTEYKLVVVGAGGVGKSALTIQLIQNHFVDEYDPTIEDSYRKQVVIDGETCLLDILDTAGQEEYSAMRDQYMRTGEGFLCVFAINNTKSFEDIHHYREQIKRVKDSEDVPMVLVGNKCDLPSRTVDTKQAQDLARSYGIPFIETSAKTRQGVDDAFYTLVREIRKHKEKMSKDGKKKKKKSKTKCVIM

SMILES	IC50 (wildtype KRAS) [µM]	IC50 (KRAS G12V) [µM]	IC50 (KRAS G12D) [µM]
CN(C)CC1CNC(=O)CCN2CCOc3c(Cl)c(-c4ccc(F)c5sc(N)c(C#N)c45)c(F)c4nc(nc2c34)O1 (stereo not shown) [Compound 128, 2-amino-4-(14-chloro-4-((dimethylamino)methyl)-16-fluoro-7-oxo-4,5,6,7,8,9,11,12-octahydro-2,17-(azeno)benzo[6,7][1,4]oxazepino[5,4-d][1]oxa[3,5,9]triazacycloundecin-15-yl)-7-fluorobenzo[b]thiophene-3-carbonitrile]	≤ 5	≤ 5	≤ 5
CN1CCCCOc2nc3c4c(c(Cl)c(-c5ccc(F)c6sc(N)c(C#N)c56)c(F)c4n2)OCCN3CCCC1 [Compound 113, 2-amino-4-(17-chloro-19-fluoro-8-methyl-5,6,7,8,9,10,11,12,14,15-decahydro-4H-2,20-(azeno)benzo[6,7][1,4]oxazepino[5,4-d][1]oxa[3,5,10]triazacyclotetradecin-18-yl)-7-fluorobenzo[b]thiophene-3-carbonitrile]		≤ 5	
CN(C)CC1CNC(=O)CN2CCOc3c(Cl)c(-c4ccc(F)c5sc(N)c(C#N)c45)c(F)c4nc(nc2c34)OC1 (stereo not shown) [Compound 145, 2-amino-4-(14-chloro-5-((dimethylamino)methyl)-16-fluoro-8-oxo-4,5,6,7,8,9,11,12-octahydro-2,17-(azeno)benzo[6,7][1,4]oxazepino[5,4-d][1]oxa[3,5,8]triazacycloundecin-15-yl)-7-fluorobenzo[b]thiophene-3-carbonitrile]	≤ 5	≤ 5	≤ 5
CN(C)CC1CC=CCCN2c3nc(nc4c(F)c(-c5ccc(F)c6sc(N)c(C#N)c56)c(Cl)c(c34)OC[C@@H]2C(F)F)O1 (stereo partly drawn) [Compound 115, 2-amino-4-((11R)-14-chloro-11-(difluoromethyl)-4-((dimethylamino)methyl)-16-fluoro-4,5,8,9,11,12-hexahydro-2,17-(azeno)benzo[6,7][1,4]oxazepino[5,4-d][1]oxa[3,5]diazacycloundecin-15-y1)-7-fluorobenzo[b]thiophene-3-carbonitrile]		≤ 5	
CN(C)CC1/C=C/CCN2CCOc3c(Cl)c(-c4ccc(F)c5sc(N)c(C#N)c45)c(F)c4nc(nc2c34)OC1 (stereo not shown) [Compound 110, (E)-2-amino-4-(14-chloro-5-((dimethylamino)methyl)-16-fluoro-4,5,8,9,11,12-hexahydro-2,17-(azeno)benzo[6,7][1,4]oxazepino[5,4-d][1]oxa[3,5]diazacycloundecin-15-yl)-7-fluorobenzo[b]thiophene-3-carbonitrile]	≤ 5	≤ 5	≤ 5
CN1CCCCCN2CCOc3c(Cl)c(-c4ccc(F)c5sc(N)c(C#N)c45)c(F)c4nc(nc2c34)OCC2(CC2)C1 [Compound 149, 2-amino-4-(17′-chloro-19′-fluoro-7′-methyl-7′,8′,9′,10′,11′,12′,14′,15′-octahydro-4′H,6′H-spiro[cyclopropane-1,5′-[2,20](azeno)benzo[6,7][1,4]oxazepino[5,4-d][1]oxa[3,5,11]triazacyclotetradecin]-18′-yl)-7-fluorobenzo[b]thiophene-3-carbonitrile]	≤ 5	≤ 5	≤ 5
CN(C)CC1CC=CCCN2CCOc3c(Cl)c(-c4ccc(F)c5sc(N)c(C#N)c45)c(F)c4nc(nc2c34)O1 (stereo not shown) [Compound 116, 2-amino-4-(14-chloro-4-((dimethylamino)methyl)-16-fluoro-4,5,8,9,11,12-hexahydro-2,17-(azeno)benzo[6,7][1,4]oxazepino[5,4-d][1]oxa[3,5]diazacycloundecin-15-yl)-7-fluorobenzo[b]thiophene-3-carbonitrile]	≤ 5	≤ 5	≤ 5
C[C@H]1COc2c(Cl)c(-c3ccc(F)c4sc(N)c(C#N)c34)c(F)c3nc4nc(c23)N1CCC=CCC(CN(C)C)O4 (mixture of isomers) [Compound 150, 2-amino-4-((11S)-14-chloro-4-((dimethylamino)methyl)-16-fluoro-11-methyl-4,5,8,9,11,12-hexahydro-2,17-(azeno)benzo[6,7][1,4]oxazepino[5,4-d][1]oxa[3,5]diazacycloundecin-15-yl)-7-fluorobenzo[b]thiophene-3-carbonitrile]	≤ 5	≤ 5	≤ 5
CN1CCCOc2nc3c4c(c(Cl)c(-c5ccc(F)c6sc(N)c(C#N)c56)c(F)c4n2)OCCN3CCC1 [Compound 143, 2-amino-4-(15-chloro-17-fluoro-7-methyl-5,6,7,8,9,10,12,13-octahydro-4H-2,18-(azeno)benzo[6,7][1,4]oxazepino[5,4-d][1]oxa[3,5,9]triazacyclododecin-16-yl)-7-fluorobenzo[b]thiophene-3-carbonitrile]	≤ 5	≤ 5	≤ 5
CN(C)CC1CCCCCN2c3nc(nc4c(F)c(-c5ccc(F)c6sc(N)c(C#N)c56)c(Cl)c(c34)OC[C@@H]2C(F)F)O1 (stereo partly drawn) [Compound 156, 2-amino-4-((11R)-14-chloro-11-(difluoromethyl)-4-((dimethylamino)methyl)-16-fluoro-4,5,6,7,8,9,11,12-octahydro-2,17-(azeno)benzo[6,7][1,4]oxazepino[5,4-d][1]oxa[3,5]diazacycloundecin-15-yl)-7-fluorobenzo[b]thiophene-3-carbonitrile]	≤ 5	≤ 5	≤ 5
CNCC1C/C=C\CCN2CCOc3c(Cl)c(-c4ccc(F)c5sc(N)c(C#N)c45)c(F)c4nc(nc2c34)O1 (stereo not shown) [Compound 141, (Z)-2-amino-4-(14-chloro-16-fluoro-4-((methylamino)methyl)-4,5,8,9,11,12-hexahydro-2,17-(azeno)benzo[6,7][1,4]oxazepino[5,4-d][1]oxa[3,5]diazacycloundecin-15-yl)-7-fluorobenzo[b]thiophene-3-carbonitrile]	≤ 5	≤ 5	≤ 5
CNCC1CCCCCN2CCOc3c(Cl)c(-c4ccc(F)c5sc(N)c(C#N)c45)c(F)c4nc(nc2c34)O1 (stereo not shown) [Compound 133, 2-amino-4-(14-chloro-16-fluoro-4-((methylamino)methyl)-4,5,6,7,8,9,11,12-octahydro-2,17-(azeno)benzo[6,7][1,4]oxazepino[5,4-d][1]oxa[3,5]diazacycloundecin-15-yl)-7-fluorobenzo[b]thiophene-3-carbonitrile]	≤ 5	≤ 5	≤ 5
CN(C)CC1CCCCCCN2CCOc3c(Cl)c(-c4ccc(F)c5sc(N)c(C#N)c45)c(F)c4nc(nc2c34)O1 (stereo not shown) [Compound 117, 2-amino-4-(15-chloro-4-((dimethylamino)methyl)-17-fluoro-5,6,7,8,9,10,12,13-octahydro-4H-2,18-(azeno)benzo[6,7][1,4]oxazepino[5,4-d][1]oxa[3,5]diazacyclododecin-16-yl)-7-fluorobenzo[b]thiophene-3-carbonitrile]	≤ 5	≤ 5	≤ 5
CN(C)CC1CC=CCCN2c3nc(nc4c(F)c(-c5ccc(F)c6sc(N)c(C#N)c56)c(Cl)c(c34)OC[C@@H]2C(F)F)O1 (mixture of isomers) [Compound 107, 2-amino-4-((11R)-14-chloro-11-(difluoromethyl)-4-((dimethylamino)methyl)-16-fluoro-4,5,8,9,11,12-hexahydro-2,17-(azeno)benzo[6,7][1,4]oxazepino[5,4-d][1]oxa[3,5]diazacycloundecin-15-yl)-7-fluorobenzo[b]thiophene-3-carbonitrile]	≤ 5		≤ 5
C[C@H]1COc2c(Cl)c(-c3ccc(F)c4sc(N)c(C#N)c34)c(F)c3nc4nc(c23)N1CCC=CCC(CN(C)C)O4 (single isomer, unassigned) [Compound 103]	≤ 5	≤ 5	≤ 5

— patent publication US20240270736A1, “MACROCYCLIC HETEROCYCLES AND USES THEREOF” (Kumquat Biosciences Inc., priority 2022, published 2024)
